Test results published in article PMC11124822, “Discovery and Anticancer Screening of Novel Oxindole-Based Derivative Bearing Pyridyl Group as Potent and Selective Dual FLT3/CDK2 Kinase Inhibitor” (Pharmaceuticals, 2024).

Columns and labels:
ACHN = test: NCI-60 antiproliferative screen (SRB); format: cell-based, human; settings: Homo sapiens; 10 µM single dose, 48 h; ACHN (Renal); read-out: Growth inhibition (%)
MDA-MB-435 = test: NCI-60 antiproliferative screen (SRB); format: cell-based, human; settings: Homo sapiens; 10 µM single dose, 48 h; MDA-MB-435 (Melanoma); read-out: Growth inhibition (%)
786-0 = test: NCI-60 antiproliferative screen (SRB); format: cell-based, human; settings: Homo sapiens; 10 µM single dose, 48 h; 786-0 (Renal); read-out: Growth inhibition (%)
TK-10 = test: NCI-60 antiproliferative screen (SRB); format: cell-based, human; settings: Homo sapiens; 10 µM single dose, 48 h; TK-10 (Renal); read-out: Growth inhibition (%)
EKVX = test: NCI-60 antiproliferative screen (SRB); format: cell-based, human; settings: Homo sapiens; 10 µM single dose, 48 h; EKVX (NSCLC); read-out: Growth inhibition (%)
SK-MEL-5 = test: NCI-60 antiproliferative screen (SRB); format: cell-based, human; settings: Homo sapiens; 10 µM single dose, 48 h; SK-MEL-5 (Melanoma); read-out: Growth inhibition (%)
SK-OV-3 = test: NCI-60 antiproliferative screen (SRB); format: cell-based, human; settings: Homo sapiens; 10 µM single dose, 48 h; SK-OV-3 (Ovarian); read-out: Growth inhibition (%)
HT29 = test: NCI-60 antiproliferative screen (SRB); format: cell-based, human; settings: Homo sapiens, HT-29; 10 µM single dose, 48 h; HT29 (Colon); read-out: Growth inhibition (%)
A549/ATCC = test: NCI-60 antiproliferative screen (SRB); format: cell-based, human; settings: Homo sapiens; 10 µM single dose, 48 h; A549/ATCC (NSCLC); read-out: Growth inhibition (%)
NCI-H460 = test: NCI-60 antiproliferative screen (SRB); format: cell-based, human; settings: Homo sapiens; 10 µM single dose, 48 h; NCI-H460 (NSCLC); read-out: Growth inhibition (%)
SNB-19 = test: NCI-60 antiproliferative screen (SRB); format: cell-based, human; settings: Homo sapiens; 10 µM single dose, 48 h; SNB-19 (CNS); read-out: Growth inhibition (%)
T-47D = test: NCI-60 antiproliferative screen (SRB); format: cell-based, human; settings: Homo sapiens, T47D; 10 µM single dose, 48 h; T-47D (Breast); read-out: Growth inhibition (%)
HL-60(TB) = test: NCI-60 antiproliferative screen (SRB); format: cell-based, human; settings: Homo sapiens; 10 µM single dose, 48 h; HL-60(TB) (Leukemia); read-out: Growth inhibition (%)
HS 578T = test: NCI-60 antiproliferative screen (SRB); format: cell-based, human; settings: Homo sapiens; 10 µM single dose, 48 h; HS 578T (Breast); read-out: Growth inhibition (%)
COLO 205 = test: NCI-60 antiproliferative screen (SRB); format: cell-based, human; settings: Homo sapiens; 10 µM single dose, 48 h; COLO 205 (Colon); read-out: Growth inhibition (%)
SN12C = test: NCI-60 antiproliferative screen (SRB); format: cell-based, human; settings: Homo sapiens; 10 µM single dose, 48 h; SN12C (Renal); read-out: Growth inhibition (%)
BT-549 = test: NCI-60 antiproliferative screen (SRB); format: cell-based, human; settings: Homo sapiens; 10 µM single dose, 48 h; BT-549 (Breast); read-out: Growth inhibition (%)
HOP-92 = test: NCI-60 antiproliferative screen (SRB); format: cell-based, human; settings: Homo sapiens; 10 µM single dose, 48 h; HOP-92 (NSCLC); read-out: Growth inhibition (%)
LOX IMVI = test: NCI-60 antiproliferative screen (SRB); format: cell-based, human; settings: Homo sapiens; 10 µM single dose, 48 h; LOX IMVI (Melanoma); read-out: Growth inhibition (%)
NCI-H23 = test: NCI-60 antiproliferative screen (SRB); format: cell-based, human; settings: Homo sapiens; 10 µM single dose, 48 h; NCI-H23 (NSCLC); read-out: Growth inhibition (%)
[1] = tested on: NCI-60 human cancer cell lines; test: NCI-60 screen, full panel summary; format: cell-based; settings: 10 µM single dose; for Mean Growth Percent: all NCI-60 cell lines
Experimental: In a comprehensive test, compounds were assayed at a single dose concentration (10^−5 M) in the full panel of NCI-60 cancer cell lines.

UACC-62 = test: NCI-60 antiproliferative screen (SRB); format: cell-based, human; settings: Homo sapiens; 10 µM single dose, 48 h; UACC-62 (Melanoma); read-out: Growth inhibition (%)
NCI-H226 = test: NCI-60 antiproliferative screen (SRB); format: cell-based, human; settings: Homo sapiens; 10 µM single dose, 48 h; NCI-H226 (NSCLC); read-out: Growth inhibition (%)
K-562 = test: NCI-60 antiproliferative screen (SRB); format: cell-based, human; settings: Homo sapiens, K562; 10 µM single dose, 48 h; K-562 (Leukemia); read-out: Growth inhibition (%)
CCRF-CEM = test: NCI-60 antiproliferative screen (SRB); format: cell-based, human; settings: Homo sapiens; 10 µM single dose, 48 h; CCRF-CEM (Leukemia); read-out: Growth inhibition (%)
HCT-15 = test: NCI-60 antiproliferative screen (SRB); format: cell-based, human; settings: Homo sapiens; 10 µM single dose, 48 h; HCT-15 (Colon); read-out: Growth inhibition (%)
SF-268 = test: NCI-60 antiproliferative screen (SRB); format: cell-based, human; settings: Homo sapiens; 10 µM single dose, 48 h; SF-268 (CNS); read-out: Growth inhibition (%)

## O=C1Nc2ccccc2C1=Cc1ccc(OCc2cccnc2)cc1 (mixture of isomers) [Compound 5i, (E/Z)-3-[4-(Pyridin-3-ylmethoxy)benzylidene]indolin-2-one]
ACHN
  inhibition at 10 µM: 37.5%
MDA-MB-435
  inhibition at 10 µM: 60.9%
786-0
  inhibition at 10 µM: 17.2%
TK-10
  inhibition at 10 µM: -15.7%
EKVX
  inhibition at 10 µM: 31.7%
SK-MEL-5
  inhibition at 10 µM: 59.4%
SK-OV-3
  inhibition at 10 µM: 13.2%
HT29
  inhibition at 10 µM: 32.7%
A549/ATCC
  inhibition at 10 µM: 26.2%
NCI-H460
  inhibition at 10 µM: 21.7%
SNB-19
  inhibition at 10 µM: 37.1%
T-47D
  inhibition at 10 µM: 51%
HL-60(TB)
  inhibition at 10 µM: 49.9%
HS 578T
  inhibition at 10 µM: 17.6%
COLO 205
  inhibition at 10 µM: 26.1%
SN12C
  inhibition at 10 µM: 27.1%
BT-549
  inhibition at 10 µM: 53.2%
HOP-92
  inhibition at 10 µM: 35.4%
LOX IMVI
  inhibition at 10 µM: 55%
NCI-H23
  inhibition at 10 µM: 42.4%
[1]
  Positive Cytostatic Effect (cell lines with percent growth from 0 to 50 / total number of cell lines): 17/56
  Positive Cytotoxic Effect (cell lines with percent growth of <0 / total number of cell lines): 0/56
  Sensitive/Total Cell Lines: 17/56
  The Most Sensitive Cell Line: KM12
  Mean Growth Percent: 34.95
UACC-62
  inhibition at 10 µM: 43.5%
NCI-H226
  inhibition at 10 µM: 38.2%
K-562
  inhibition at 10 µM: 75.9%
CCRF-CEM
  inhibition at 10 µM: 52.4%
HCT-15
  inhibition at 10 µM: 60.5%
SF-268
  inhibition at 10 µM: -19.6%

## O=C1Nc2ccc(Cl)cc2C1=Cc1ccc(OCc2cccnc2)cc1 (mixture of isomers) [Compound 5k, (E/Z)-5-Chloro-3-[4-(pyridin-3-ylmethoxy)benzylidene] indolin-2-one]
ACHN
  inhibition at 10 µM: 16.4%
MDA-MB-435
  inhibition at 10 µM: 29.3%
786-0
  inhibition at 10 µM: 1.47%
TK-10
  inhibition at 10 µM: -37.8%
EKVX
  inhibition at 10 µM: 16.1%
SK-MEL-5
  inhibition at 10 µM: 11.4%
SK-OV-3
  inhibition at 10 µM: 5.36%
HT29
  inhibition at 10 µM: 18.1%
A549/ATCC
  inhibition at 10 µM: 16.1%
NCI-H460
  inhibition at 10 µM: 14.3%
SNB-19
  inhibition at 10 µM: 22.9%
T-47D
  inhibition at 10 µM: 23.2%
HL-60(TB)
  inhibition at 10 µM: 14.8%
HS 578T
  inhibition at 10 µM: 3.67%
COLO 205
  inhibition at 10 µM: 5.66%
SN12C
  inhibition at 10 µM: 9.17%
BT-549
  inhibition at 10 µM: 14.5%
HOP-92
  inhibition at 10 µM: -1.4%
LOX IMVI
  inhibition at 10 µM: 10.1%
NCI-H23
  inhibition at 10 µM: 16.7%
[1]
  Positive Cytostatic Effect (cell lines with percent growth from 0 to 50 / total number of cell lines): 5/56
  Positive Cytotoxic Effect (cell lines with percent growth of <0 / total number of cell lines): 0/56
  Sensitive/Total Cell Lines: 5/56
  Mean Growth Percent: 14.49
UACC-62
  inhibition at 10 µM: 23.3%
NCI-H226
  inhibition at 10 µM: 11.8%
K-562
  inhibition at 10 µM: 38.8%
CCRF-CEM
  inhibition at 10 µM: 36.4%
other
  melting point: 199 to 201 °C
HCT-15
  inhibition at 10 µM: 46.5%
SF-268
  inhibition at 10 µM: 5.1%

## O=C1Nc2ccc(F)cc2C1=Cc1ccc(OCc2cccnc2)cc1 (mixture of isomers) [Compound 5j, (E/Z)-5-Fluoro-3-[4-(pyridin-3-ylmethoxy)benzylidene]indolin-2-one]
ACHN
  inhibition at 10 µM: 51.8%
MDA-MB-435
  inhibition at 10 µM: 98.3%
786-0
  inhibition at 10 µM: 24.2%
TK-10
  inhibition at 10 µM: -1.92%
EKVX
  inhibition at 10 µM: 41%
SK-MEL-5
  inhibition at 10 µM: 113%
SK-OV-3
  inhibition at 10 µM: 13.2%
HT29
  inhibition at 10 µM: 84.1%
A549/ATCC
  inhibition at 10 µM: 39.4%
NCI-H460
  inhibition at 10 µM: 53.9%
SNB-19
  inhibition at 10 µM: 62.1%
T-47D
  inhibition at 10 µM: 66.7%
HL-60(TB)
  inhibition at 10 µM: 81.7%
HS 578T
  inhibition at 10 µM: 37.4%
COLO 205
  inhibition at 10 µM: 46.1%
SN12C
  inhibition at 10 µM: 46.1%
BT-549
  inhibition at 10 µM: 65.7%
HOP-92
  inhibition at 10 µM: 25.8%
LOX IMVI
  inhibition at 10 µM: 76.9%
NCI-H23
  inhibition at 10 µM: 58.2%
[1]
  Positive Cytostatic Effect (cell lines with percent growth from 0 to 50 / total number of cell lines): 32/56
  Positive Cytotoxic Effect (cell lines with percent growth of <0 / total number of cell lines): 1/56
  Sensitive/Total Cell Lines: 33/56
  The Most Sensitive Cell Line: SK-MEL-5
  number of cell lines with cytostatic effects: 32
  number of cell lines with cytotoxic effects: 1
  Mean Growth Percent: 53.95
UACC-62
  inhibition at 10 µM: 57.8%
NCI-H226
  inhibition at 10 µM: 55.6%
K-562
  inhibition at 10 µM: 86.1%
CCRF-CEM
  inhibition at 10 µM: 75%
other
  melting point: 187 to 189 °C
HCT-15
  inhibition at 10 µM: 84.8%
SF-268
  inhibition at 10 µM: 11.1%
